What was measured:
Assay type in all cases: in vivo, mouse
[1] = system: meibomian gland basal cells; test: Cell proliferation assay through BrdU incorporation staining after eye drop instillation; details: 1.5 year old WT mice, 5% eye drop (5 μL/eye, 6 times/day, only right eye), 2 weeks, vs Vehicle (phosphate buffered saline)
Protocol: [table] BrdU (100 mg/kg body weight, Sigma-Aldrich) was intraperitoneally injected 30 minutes prior to harvesting eyelid tissue from a mouse. An eyelid comprising meibomian glands was immobilized with 4% PFA and embedded in paraffin. Antigens were activated by pressurizing a 5 μm thick segment for 2.5 minutes in 10 mM sodium citrate buffer (pH 6.0). After incubating the segment for 24 hours at 4° C. by using an anti-BrdU antibody (1:1000 dilution; Rockland Inc.), the immune response was made visible with 3,3′-diaminobenzidine (DAB) using secondary antibody Envision+ System—HRP Labelled Polymer Anti-Rabbit (Dako). For each tissue segment, BrdU positive cells in the basal cell layer of a meibomian gland were counted on a digital microscope picture captured at 20× magnification. The length of the outer circumference of a meibomian gland acinus was measured with ImageJ software, and the total BrdU positive cell count was normalized with the length of the outer circumference. The BrdU positive cells were counted by using 16 segments per individual.

[2] = system: lipid components in meibomian glands; test: Lipid analysis of meibomian glands after eye drop instillation (APCI); details: 1.75 year old WT mice, eye drop instillation 3 months as Example 3, compared to Vehicle (phosphate buffered saline)
Protocol: (1) The Eye Drop Instillation Experiment is Performed in the Same Manner as Example 3. Meibomian glands are harvested from an eyelid of a euthanized mouse. Two meibomian glands harvested from one of the eyes of each animal are each placed in a glass vial containing 1 mL of chloroform:methanol=2:1 (v/v) solvent mixture for lipid extraction, and lipids are extracted. The extract is relocated into a new vial. The extract can be stored for several months at −20° C. or lower by evaporating the solution under nitrogen. The extract is then dissolved in a suitable solvent, and lipid composition is analyzed by APCI.

meibomian gland tissue = test: Lipid stained tissue observation (meibomian gland volume evaluation), whole mount Herxheimer's staining; details: 1.75 year old WT mice, 5% eye drop (5 μL/eye, 4 times/day, only right eye), 3 months, vs Vehicle (phosphate buffered saline)
Protocol: Meibomian gland tissue in mice was stained in accordance with the following protocol.
As a preparation method of 100 mL of staining solution, a bottle of stock solution prepared by dissolving Sudan IV to saturate in 100% ethanol was left standing in advance, and 70 mL of as much of the supernatant, 20 mL of 10% NaOH, and 10 mL of ultrapure water were mixed, tumbled for 5 minutes, and centrifuged to allow powder to precipitate. The supernatant was filtered with a 0.45 μm filter and used as a staining solution.
The cervical vertebrae of mice was dislocated, and skin of the head including meibomian glands was sampled. The sample was immersed in 4% paraformaldehyde while keeping the sample flat with a drawing pin, and immobilized using a rotator at 4° C. for 24 hours. The periphery of meibomian glands was trimmed. The meibomian glands were immersed in 50% ethanol by using a rotator at room temperature for 10 minutes, then immersed for 20 minutes in 70% ethanol, and immersed in a staining solution using a rotator at room temperature for 24 hours in a falcon tube. The meibomian glands were then immersed for 10 minutes in 70% ethanol, and washing was repeated several times to confirm that the meibomian glands were stained well. The meibomian glands were immersed for 24 hours in amino alcohol in glycerin prepared by mixing 3.75 mL of 80% amino alcohol with 8.25 mL glycerin. […]

Hsd3b6 = test: Measurement of meibomian gland Hsd3b6 enzymatic activity (steroid synthesis activity) after eye drop instillation; details: 1.5 year old WT mice, 5% eye drop (5 μL/eye, 6 times/day, only right eye), 2 weeks, vs Vehicle (phosphate buffered saline)
Protocol: The meibomian gland Hsd3b6 enzymatic activity in mice was measured in accordance with the following protocol.
Hank's balanced salt solution (HBSS) was bubbled with […] for 1 hour or more, and dispensed in 2 mL tubes at 200 μL each. The lid was closed while filled with […]. HBSS was warmed with a 37° C. water bath. A reaction incubator was warmed to 37° C., and a micro tube mixer was installed therein.
The main power of a flow liquid scintillation counter (Perkin Elmer, Radiomatic 625TR) was turned on, and the main power of HPLC (Waters, 2795 Separations Module) was turned on to perform setup. Mobile phase A was replaced with water, and mobile phase B was replaced with acetonitrile. Once a column (Kanto Chemical, LiChroCART 250-4, LiChrosphere 100RP-18, particle size: 5 μm, 4 mm I.D.×250 mm) was installed, 40% acetonitrile (ACN) (A: 60%, B: 40%) was flown at 0.7 mL/min. The column oven temperature at this time was set to 40° C.
^3H-DHEA was added to 1 mL of 40% ACN contained in a 2 mL tube, and the mixture was tapped. A microtube was set on an HPLC holder, and single administration was selected. The peak of contaminant produced after 22 minutes was not collected. […]

Molecule	BrdU positive cell count in meibomian gland basal cells [1]	Lipid components in a meibomian gland [2]	meibomian gland volume (meibomian gland tissue)	Hsd3b6 enzymatic activity in a meibomian gland (Hsd3b6)
Nicotinamide mononucleotide [NMN]	increased significantly	normalized	significant increase	increased significantly
NC(=O)c1ccc[n+]([C@@H]2O[C@H](CO)[C@@H](O)[C@H]2O)c1 [NR, Nicotinamide riboside]	increased significantly	normalized	significant increase	
